Assays:
recombinant human MER = molecular target: T1, recombinant human MER (Homo sapiens, UniProt Q12866); test: Biochemical potency, HTRF KinEASE-TK kinase assay; details: 1 nM MER, 700 μM ATP
T1 construct: purchased Invitrogen
T1 sequence (Q12866 21-999): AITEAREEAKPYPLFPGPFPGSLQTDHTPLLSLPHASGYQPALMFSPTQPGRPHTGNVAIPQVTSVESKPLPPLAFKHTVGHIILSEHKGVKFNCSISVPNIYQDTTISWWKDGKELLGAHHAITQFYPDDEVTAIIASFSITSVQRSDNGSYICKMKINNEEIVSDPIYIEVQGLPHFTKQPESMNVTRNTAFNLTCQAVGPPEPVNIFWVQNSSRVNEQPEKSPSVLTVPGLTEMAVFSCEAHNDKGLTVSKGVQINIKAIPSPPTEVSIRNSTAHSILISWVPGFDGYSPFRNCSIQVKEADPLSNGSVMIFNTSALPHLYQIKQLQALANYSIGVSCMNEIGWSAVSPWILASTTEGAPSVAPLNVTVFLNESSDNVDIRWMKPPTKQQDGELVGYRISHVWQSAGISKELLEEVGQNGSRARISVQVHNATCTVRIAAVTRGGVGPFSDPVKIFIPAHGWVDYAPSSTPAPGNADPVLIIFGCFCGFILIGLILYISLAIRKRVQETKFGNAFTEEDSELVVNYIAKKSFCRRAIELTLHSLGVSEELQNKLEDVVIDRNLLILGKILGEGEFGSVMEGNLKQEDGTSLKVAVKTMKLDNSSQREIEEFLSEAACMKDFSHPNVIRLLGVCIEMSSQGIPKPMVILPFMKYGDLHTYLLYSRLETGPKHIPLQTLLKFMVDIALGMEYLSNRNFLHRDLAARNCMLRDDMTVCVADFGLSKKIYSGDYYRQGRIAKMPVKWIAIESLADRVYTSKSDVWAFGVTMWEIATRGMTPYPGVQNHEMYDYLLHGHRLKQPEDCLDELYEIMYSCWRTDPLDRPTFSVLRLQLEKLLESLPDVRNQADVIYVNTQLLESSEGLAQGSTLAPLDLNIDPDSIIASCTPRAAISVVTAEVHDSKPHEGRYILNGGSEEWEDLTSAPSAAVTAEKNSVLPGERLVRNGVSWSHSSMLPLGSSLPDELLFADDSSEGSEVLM
Experimental: (§1) Measurement of Biochemical Compound Potency of Axl Inhibitors
(§2) Purified recombinant human AXL, TYRO3 and MER proteins were purchased from Invitrogen™. 10 nM AXL, 2 nM TYRO3 or MER were incubated with varying concentrations of compounds in 50 mM HEPES, pH 7.4, 10 mM MgCl2, 0.01% BSA, 1 mM DTT and 2% DMSO in a total volume of 20 μl in a 384-well microplate (Corning™ #3640) at RT for 1 h. The AXL, TYRO3 and MER enzymatic reaction was initiated by transferring 10 μl of enzyme and compound mixture into 10 μl of 1.6 μM TK Substrate-biotin (HTRF® KinEASE-TK kit, Cisbio) and 1400 μM ATP pre-incubated in 50 mM HEPES, pH 7.4, 10 mM MgCl2, 0.01% BSA, 1 mM DTT in a 384-well microplate (Corning™ #3640) at RT, giving the final reaction conditions: 5 nM AXL, 1 nM TYRO3 or MER, 800 nM TK Substrate-biotin and 700 μM ATP in 50 mM HEPES, pH 7.4, 10 mM MgCl2, 0.01% BSA, 1 mM DTT and 1% DMSO with varying concentrations of compounds. Following 2 h incubation at RT, the AXL, TYRO3 and MER enzymatic reaction was stopped by transfer of 10 μl of reaction into 10 μl of detection mix (400 nM Streptavidin-XL665, 200-fold dilution TK Antibody-Cryptate and detection buffer, HTRF® KinEASE-TK kit, Cisbio) in a white 384-well microplate (Perkin Elmer, OptiPlate 384). After 1 h incubation at RT, the plate was put into a plate reader (Evision) to read at 665/620 nm (acceptor/donor) for HTRF. The value of the DMSO blank (MIN inhibition=100% activity) was used as a negative control. The positive control was established by adding 5 μl of enzyme and DMSO mixture into 10 μl of detection mix followed by addition of 5 μl of TK Substrate-biotin and ATP mixture (MAX inhibition=0% activity). To calculate the percent activity, Equation 1 was used. Ratio665/620 is the value at a given compound concentration: […]

recombinant human TYRO3 = molecular target: T2, recombinant human TYRO3 (Homo sapiens, UniProt Q06418); test: Biochemical potency, HTRF KinEASE-TK kinase assay; details: 1 nM TYRO3, 700 μM ATP
T2 construct: purchased Invitrogen
T2 sequence (Q06418 41-890): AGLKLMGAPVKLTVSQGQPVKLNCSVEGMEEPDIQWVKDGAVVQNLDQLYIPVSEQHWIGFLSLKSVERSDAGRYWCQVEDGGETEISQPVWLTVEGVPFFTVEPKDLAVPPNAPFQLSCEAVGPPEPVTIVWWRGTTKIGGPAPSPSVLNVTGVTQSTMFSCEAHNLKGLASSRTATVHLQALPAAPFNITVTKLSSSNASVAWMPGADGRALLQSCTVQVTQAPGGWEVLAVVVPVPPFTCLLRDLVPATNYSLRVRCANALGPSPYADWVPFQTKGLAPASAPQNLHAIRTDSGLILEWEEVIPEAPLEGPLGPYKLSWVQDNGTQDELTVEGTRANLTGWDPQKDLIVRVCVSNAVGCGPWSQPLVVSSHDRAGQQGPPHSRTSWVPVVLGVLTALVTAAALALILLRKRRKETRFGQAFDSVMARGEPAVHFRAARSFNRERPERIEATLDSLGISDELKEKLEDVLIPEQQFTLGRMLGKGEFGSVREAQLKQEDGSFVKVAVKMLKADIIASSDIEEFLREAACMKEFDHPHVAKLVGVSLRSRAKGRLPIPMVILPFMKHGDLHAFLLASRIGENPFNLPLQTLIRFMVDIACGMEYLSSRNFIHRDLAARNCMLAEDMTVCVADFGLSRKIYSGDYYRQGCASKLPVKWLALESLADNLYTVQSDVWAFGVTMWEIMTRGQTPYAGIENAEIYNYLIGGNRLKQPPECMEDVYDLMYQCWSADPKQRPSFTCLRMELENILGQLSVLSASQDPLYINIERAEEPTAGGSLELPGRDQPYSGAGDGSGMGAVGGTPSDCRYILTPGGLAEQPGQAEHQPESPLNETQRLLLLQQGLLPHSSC
Experimental: as §1, §2

IC50 (recombinant human MER) [nM] | IC50 (recombinant human TYRO3) [nM] | Compound
100 to 1000 | 100 to 1000 | O=C(c1cccnc1-c1ccc(-c2n[nH]c3ncc(-c4ccc5c(c4)CC[C@@H](N4C6COCC4C6)CC5)cc23)cc1)N1CCCC1 [Example 4, 6-[(7S)-2-(3-{4-[3-(Pyrrolidine-1-carbonyl)pyridin-2-yl]phenyl}-1H-pyrazolo[3,4-b]pyridin-5-yl)-6,7,8,9-tetrahydro-5H-benzo[7]annulen-7-yl]-3-oxa-6-azabicyclo[3.1.1]heptane]
100 to 1000 | < 100 | c1cnc(-c2ccc(-c3c[nH]c4ncc(-c5ccc6c(c5)CC[C@@H](N5C7COCC5C7)CC6)cc34)cc2)c(N2CCOCC2)c1 [Example 5, 6-[(7S)-2-(3-{4-[3-(Morpholin-4-yl)pyridin-2-yl]phenyl}-1H-pyrrolo[2,3-b]pyridin-5-yl)-6,7,8,9-tetrahydro-5H-benzo[7]annulen-7-yl]-3-oxa-6-azabicyclo[3.1.1]heptane]
100 to 1000 | 100 to 1000 | CN(C)S(=O)(=O)c1cccnc1-c1ccc(-c2c[nH]c3ncc(-c4ccc5c(c4)CC[C@@H](N4C6COCC4C6)CC5)cc23)cc1 [Example 6, N,N-Dimethyl-2-(4-{5-[(7S)-7-{3-oxa-6-azabicyclo[3.1.1]heptan-6-yl}-6,7,8,9-tetrahydro-5H-benzo[7]annulen-2-yl]-1H-pyrrolo[2,3-b]pyridin-3-yl}phenyl)pyridine-3-sulfonamide]
100 to 1000 | < 100 | O=C1CCCN1c1cccnc1-c1ccc(-c2c[nH]c3ncc(-c4ccc5c(c4)CC[C@@H](N4C6COCC4C6)CC5)cc23)cc1 [Example 7, 1-[2-(4-{5-[(7S)-7-{3-Oxa-6-azabicyclo[3.1.1]heptan-6-yl}-6,7,8,9-tetrahydro-5H-benzo[7]annulen-2-yl]-1H-pyrrolo[2,3-b]pyridin-3-yl}phenyl)pyridin-3-yl]pyrrolidin-2-one]
100 to 1000 | < 100 | CC(C)(O)c1cccnc1-c1ccc(-c2n[nH]c3ncc(-c4ccc5c(c4)CC[C@@H](N4C6COCC4C6)CC5)cc23)cc1 [Example 10, 2-[2-(4-{5-[(7S)-7-{3-Oxa-6-azabicyclo[3.1.1]heptan-6-yl}-6,7,8,9-tetrahydro-5H-benzo[7]annulen-2-yl]-1H-pyrazolo[3,4-b]pyridin-3-yl}phenyl)pyridin-3-yl]propan-2-ol]
100 to 1000 | 100 to 1000 | CN(C)C(=O)c1ccccc1-c1ccc(-c2n[nH]c3ncc(-c4ccc5c(c4)CC[C@@H](N4C6COCC4C6)CC5)cc23)cc1 [Example 12, N,N-Dimethyl-4′-{5-[(7S)-7-{3-oxa-6-azabicyclo[3.1.1]heptan-6-yl}-6,7,8,9-tetrahydro-5H-benzo[7]annulen-2-yl]-2H-pyrazolo[3,4-b]pyridin-3-yl}-[1,1′-biphenyl]-2-carboxamide]
> 1000 | > 1000 | Cn1nncc1-c1ccc(-c2n[nH]c3ncc(-c4ccc5c(c4)CC[C@@H](N4C6COCC4C6)CC5)cc23)cc1 [Example 13, 6-[(7S)-2-{3-[4-(1-Methyl-1H-1,2,3-triazol-5-yl)phenyl]-1H-pyrazolo[3,4-b]pyridin-5-yl}-6,7,8,9-tetrahydro-5H-benzo[7]annulen-7-yl]-3-oxa-6-azabicyclo[3.1.1]heptane]
100 to 1000 | < 100 | Cc1nn(C)nc1-c1ccc(-c2n[nH]c3ncc(-c4ccc5c(c4)CC[C@@H](N4C6COCC4C6)CC5)cc23)cc1 [Example 14, 6-[(7S)-2-{3-[4-(2,5-Dimethyl-2H-1,2,3-triazol-4-yl)phenyl]-1H-pyrazolo[3,4-b]pyridin-5-yl}-6,7,8,9-tetrahydro-5H-benzo[7]annulen-7-yl]-3-oxa-6-azabicyclo[3.1.1]heptane]
100 to 1000 | < 100 | CC(C)(C#N)c1cccnc1-c1ccc(-c2c[nH]c3ncc(-c4ccc5c(c4)CC[C@@H](N4C6COCC4C6)CC5)cc23)cc1 [Example 21, 2-Methyl-2-[2-[4-[5-[(7S)-7-(3-oxa-6-azabicyclo[3.1.1]heptan-6-yl)-6,7,8,9-tetrahydro-5H-benzo[7]annulen-3-yl]-1H-pyrrolo[2,3-b]pyridin-3-yl]phenyl]pyridin-3-yl]propanenitrile]
< 100 | < 100 | OC1(c2cccnc2-c2ccc(-c3c[nH]c4ncc(-c5ccc6c(c5)CC[C@@H](N5C7COCC5C7)CC6)cc34)cc2)CCC1 [Example 22, 1-[2-[4-[5-[(7S)-7-(3-Oxa-6-azabicyclo[3.1.1]heptan-6-yl)-6,7,8,9-tetrahydro-5H-benzo[7]annulen-3-yl]-1H-pyrrolo[2,3-b]pyridin-3-yl]phenyl]pyridin-3-yl]cyclobutan-1-ol]
100 to 1000 | < 100 | Cc1nc(-c2ccc(-c3n[nH]c4ncc(-c5ccc6c(c5)CC[C@@H](N5C7COCC5C7)CC6)cc34)cc2)n(C)n1 [Example 23, 6-[(7S)-2-{3-[4-(1,3-Dimethyl-1H-1,2,4-triazol-5-yl)phenyl]-1H-pyrazolo[3,4-b]pyridin-5-yl}-6,7,8,9-tetrahydro-5H-benzo[7]annulen-7-yl]-3-oxa-6-azabicyclo[3.1.1]heptane]
100 to 1000 | 100 to 1000 | Cc1cccnc1-c1ccc(-c2n[nH]c3ncc(-c4ccc5c(c4)CC[C@@H](N4C6COCC4C6)CC5)cc23)nc1 [Example 26, 3-Methyl-6′-{5-[(7S)-7-{3-oxa-6-azabicyclo[3.1.1]heptan-6-yl}-6,7,8,9-tetrahydro-5H-benzo[7]annulen-2-yl]-1H-pyrazolo[3,4-b]pyridin-3-yl}-2,3′-bipyridine]
100 to 1000 | < 100 | Cc1cc(F)cnc1-c1ccc(-c2n[nH]c3ncc(-c4ccc5c(c4)CC[C@@H](N4C6COCC4C6)CC5)cc23)cc1 [Example 28, 6-[(7S)-3-[3-[4-(5-Fluoro-3-methylpyridin-2-yl)phenyl]-1H-pyrazolo[3,4-b]pyridin-5-yl]-6,7,8,9-tetrahydro-5H-benzo[7]annulen-7-yl]-3-oxa-6-azabicyclo[3.1.1]heptane]
